Reference: BindingDB's records for doi:10.1016/s0960-894x(99)00298-x (Agrevo, 1999)

Experiment: Inhibition of Pisum sativum (pea) adenylate deaminase

O=P(O)(O)OC[C@H]1O[C@@H](c2n[nH]c3cncnc23)[C@H](O)[C@@H]1O
IC50: 100 nM
